Data reported in US7619005B2, “Methods for treating cognitive impairment in humans with Multiple Sclerosis” (Cognition Pharmaceuticals LLC, priority 2000, dated 2009).

What was measured:
[1] = tested on: Long-Evans rats; test: Locomotor activity, activity monitoring chambers; type: in vivo, rat
Description: Activity monitoring was conducted in a Plexiglas open-field box measuring 30 by 30 cm. […] The location of the animal within the cage was detected by breaks in the infrared light beams. Light beams status information was collected and rapidly analyzed by a computerized activity monitoring system (VersaMax System, Accuscan Instruments.)
In order to determine whether SN522 had any adverse effects on locomotor or exploratory activity, rats were injected with saline or 0.25, 0.5, 2.5 and 5.0 mg/kg of SN522 and immediately afterwards placed into the activity monitoring chambers for a period of three hours.

[2] = tested on: Long-Evans rats; test: Passive Avoidance test, injection immediately after training; conditions: i.p. immediately after training; p values=0.007 (C105), 0.0004 (d-amphetamine), 0.03 (SN522)
[3] = tested on: normal subjects; test: Phase I studies of l-methamphetamine: RAVLT word recall
[4] = tested on: Long-Evans rats; test: Water Maze acquisition; type: in vivo, rat; conditions: higher dose (0.5 mg/kg i.p.); p>0.05
Description: Water Maze testing (Morris, R., J. Neurosci Methods 11:47-60 (1984)) was conducted in a galvanized steel pool, painted white, measuring 180 cm in diameter and 60 cm in height. The pool was equipped with a removable circular platform (10 cm in diameter) made of clear Plexiglas. The pool was filled with water (26° C.) to a level of 1 cm above the surface of the platform. Nontoxic white paint was added to the water to obscure the platform's appearance. The pool was divided conceptually into four quadrants and the platform was located in the NW quadrant 30 cm from the pool wall. Extramaze cues were provided by large geometric shapes adhered to curtains that surrounded two sides of the pool, and by shelving units, a sink, and posters on the visible walls.
The training procedure involved placing the rat into the water, with the rat's head facing the wall of the pool, at one of four different starting points. The rat was allowed 60 seconds to locate the hidden platform. […] After 15 seconds spent on the platform at the end of each trial, the rat was removed from the pool and injected with saline or SN522 (0.25 and 0.5 mg/kg, i.p.). The rat was dried, and returned to its home cage. One trail was conducted each day for 10 days. The latency to reach the platform (escape latency) was recorded on each days training trial.

[5] = tested on: scopolamine treated rats; test: Passive Avoidance in scopolamine treated rats (memory impairment); type: in vivo, rat
[6] = tested on: Long-Evans rats; test: Tailflick test of analgesia (SN522); type: in vivo, rat; conditions: 0.25, 0.5, 2.5 and 5.0 mg/kg i.p.; 15, 30, 60 minutes
Description: The tail-flick response was assessed using a radiant heat tail flick monitor (Accuscan Instruments model TFS) equipped with a radiant heat element and two light beam sensors to detect tail movement.
In order to determine whether SN522 has any analgesic properties, rats (n=10 per treatment group) were injected with saline or SN522 (0.25, 0.5, 2.5 and 5.0 mg/kg, i.p.) and tested at four time points: immediately prior to injection, and again 15, 30, and 60 minutes following drug administration for a tail flick response (D'Amour, F. E., et al., J. Pharmacol. Exp. Ther. 72:174-179 (1941)). To test the tail-flick, the animal was placed on top of the Tail-Flick monitor and gently held in place with a cotton towel. The tail of the animal was placed in a shallow groove lying between the two sensors and over the top of the radiant heat wire. The heat element was activated, and the latency for the animal to flick its tail out of the groove and away from the heat source was automatically recorded via activation of the sensors. The intensity of the heat source was adjusted so that the animal flicked its tail within 3-4 seconds. A 10 second cutoff was imposed to avoid tissue damage. The animal was returned to its home cage immediately following testing.

[7] = tested on: normal subjects; test: Phase I studies of l-methamphetamine: safety and tolerability
[8] = tested on: normal subjects; test: CDR computerized cognitive assessment system, l-methamphetamine
Description: A randomized, double-blind, placebo-controlled, dose escalation study in human subjects, who were not suffering from an impairment in a memory or cognitive process (“normal subjects”), was conducted to assess the safety, tolerability and pharmacokinetics and improvement in cognitive processes, including memory, following the administration of l-methamphetamine (25 mg, 50 mg, 100 mg, 150 mg).
A selection of tasks from the CDR computerized cognitive assessment system was administered and parallel forms of the tests were presented on each testing session. […] All tasks were computer-controlled, the information was presented on high resolution screens, and the responses recorded via a response module containing two buttons, one marked ‘NO’ and the other ‘YES’. The tracking task additionally involved the use of a joystick. The test battery takes about 20-25 minutes to perform. The tests were administered in the following order: • Picture Presentation: A series of 20 pictures was presented on the screen at the rate of 1 every 3 seconds for the subject to remember. No data were recorded from this task. • Simple Reaction Time: The subject was instructed to press the ‘YES’ response button as quickly as possible every time the word ‘YES’ is presented on the screen. […] A series of digits was then presented in the center of the screen at the rate of 150 per minute and the subject was required to press the ‘YES’ button as quickly as possible every time the digit in the series matches the target digit. There were 45 targets in the series. The task lasted for 3 minutes. • Choice Reaction Time: Either the word ‘NO’ or the word ‘YES’ was presented on the screen and the subject was instructed to press the corresponding button as quickly as possible. There were 50 trials for which each stimulus word was chosen randomly with equal probability and there was a varying inter-stimulus interval. • Rapid Visual Information Processing: A series of digits was presented on the screen at the rate of 100 per minute. The subject had to detect targets consisting of consecutive sequences of either three odd digits or three even digits, and to report them by pressing the ‘YES’ button as quickly as possible. There were 32 targets. The task lasted for 4 minutes. • Tracking: The subject used a joystick to track a randomly moving target on the screen for one minute. The distance off-target per second was recorded. • Spatial Working Memory: A picture of a house was presented on the screen with four of its nine windows lit. The subject had to memorize the position of the lit windows. For each of the 36 subsequent presentations of the house, the subject was required to decide whether or not the one window that was lit was also lit in the original presentation. […]

CN[C@H](C)Cc1ccccc1 [SN522, levo-methamphetamine]
activity relative to saline control ([1]; 0.5 mg/kg, p=0.028): only modest increases in activity
motor behavior (FIG. 23 description) ([1]; 0.25 and 0.5 mg/kg ip): no or modest changes in motor behavior
activity relative to saline control ([1]; 2.5 and 5.0 mg/kg, p<0.001): small, but significant increases in activity
activity (FIG. 23 description) ([1]; doses ten times over the therapeutic doses (2.5, 5.0 mg/kg ip)): only mild increases in activity
dose that significantly improved performance on the passive avoidance task [2]: 0.5 mg/kg
RAVLT memory scores ([3]; first Phase I study (1, 4, 16, 32 mg)): No difference in memory scores
RAVLT mean values vs placebo ([3]; second Phase I study (25, 50, 100 mg) (FIG. 34)): all dose groups have mean values greater than placebo at 30 minutes and 24 hours
acquisition (escape latency) compared with saline group [4]: did not reveal any statistical differences
performance vs animals treated with scopolamine and saline ([5]; 0.25, 0.5 and 1.0 mg/kg, p values=0.01, 0.04 and 0.007): performed significantly better than animals treated with scopolamine and saline
alleviation of scopolamine impairment (step-through latency) ([5]; SN522 i.p. immediately after training, log rank p=0.02 (FIG. 32)): effective at alleviating the impairment in the scopolamine-injected animals
pain sensitivity (tail flick latency) [6]: does not alter pain sensitivity
tolerability ([7]; 150 mg dose, a few subjects in the second Phase I trial): not well tolerated
tolerability ([7]; first and second Phase I trials (1-100 mg)): generally well tolerated
Picture Recognition-Sensitivity Index vs placebo ([8]; 25 mg (p=0.0177) and 150 mg (p=0.0254) (FIG. 36)): significant benefits
Information Processing False Alarms vs placebo ([8]; 50 mg (p=0.0002), 100 mg (p=0.0001) and 150 mg (p=0.0001) (FIG. 38)): significant decrements against placebo
Information Processing Targets Detected vs placebo ([8]; 100 mg (p=0.0002) and 150 mg (p=0.0001) (FIG. 37)): significant benefits
speed of response (Total Speed score) ([8]; 25, 50, 100, 150 mg (FIG. 35)): dose-dependent effect on speed of response
